Assay results published in patent US9732046B2, “Substituted 1,2,4-triazines as tubulin inhibitors” (YM Biosciences Australia Pty Ltd., priority 2003, dated 2017).

Legend:
[1] = system: DU145 (Prostate Cancer); experiment: Cellular growth inhibition assay (MTT), DU145; assay type: cell-based; settings: Homo sapiens, DU-145, Table 1, 40 hr incubation
Outline: (§1)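 Late-log-phase cells (K562 in RPMI, DU145 in DMED, PC3 in F12K; all 10% FBS, Glutamx, plus MEM non-essential amino acids for DU145 and PC3) were plated at 50000–200,000 cell/mL (1.1× final) with compounds added at 10× final. After 40 hr at 37° C, 5% CO2, MTT was added for 6 hours, then SDS/HCl lysis overnight and absorbance read at 590 nm.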

[2] = molecular target: T1, TelJak3 (BaF3 TELJAK cells, TEL/JAK3 fusion) (Homo sapiens, UniProt P52333); experiment: Cellular growth inhibition assay (MTT), BaF3 TEL:JAK3 cell line; assay type: cell-based; settings: Table 1, 40 hr incubation
T1 construct: For JAK3 Sa1 I/Not I cleaved kinase domain PCR product was ligated with BamH I/Sa1 I cleaved TELproduct; expressed in transfected cells; host or cells: BaF3 cells bearing the pTET-off plasmid, transfected with pTELJAK3 (pTRE2 vector); the other entry of the earlier key: ETV6 (P41212, Transcription factor ETV6)

[3] = system: Tubulin (microtubule protein); experiment: Tubulin assay (turbidometric assay of microtubule assembly); assay type: biochemical; settings: Table 1; 50 μM; absorbance at 340 nm, 37° C.
Procedure: Turbidometric assays of microtubule assembly were performed by incubating microtubule protein in cuvettes at 37° C. in a thermostatically controlled spectrophotometer measuring the change in absorbance at 340 nm over time. The microtubule protein was incubated with the each test compound at 0° C. and polymerisation was initiated by addition of 1 mM GTP, prior to heating to 37° C.

[4] = molecular target: T2, TelJak2 (BaF3 TELJAK cells, TEL/Jak2 fusion) (Homo sapiens, UniProt O60674); experiment: Cellular growth inhibition assay (MTT), BaF3 TEL:JAK2 cell line; assay type: cell-based; settings: Table 1, 40 hr incubation
T2 construct: The regions encompassing the kinase domain of JAK2 (nucleotides 2994-3914); expressed in transfected cells; host or cells: BaF3 cells bearing the pTET-off plasmid, transfected with pTELJAK2 (pTRE2 vector); the other entry of the earlier key: ETV6 (P41212, Transcription factor ETV6)

[5] = system: K562 (Chronic Myeloid Leukemia); experiment: Cellular growth inhibition assay (MTT), K562; assay type: cell-based; settings: Homo sapiens, Table 1, 40 hr incubation
Outline: as §1

[6] = system: PC3 (Prostate Cancer); experiment: Cellular growth inhibition assay (MTT), PC3; assay type: cell-based; settings: Table 1, 40 hr incubation
Outline: as §1

T1 sequence (P52333 with tags, fused parts or gaps): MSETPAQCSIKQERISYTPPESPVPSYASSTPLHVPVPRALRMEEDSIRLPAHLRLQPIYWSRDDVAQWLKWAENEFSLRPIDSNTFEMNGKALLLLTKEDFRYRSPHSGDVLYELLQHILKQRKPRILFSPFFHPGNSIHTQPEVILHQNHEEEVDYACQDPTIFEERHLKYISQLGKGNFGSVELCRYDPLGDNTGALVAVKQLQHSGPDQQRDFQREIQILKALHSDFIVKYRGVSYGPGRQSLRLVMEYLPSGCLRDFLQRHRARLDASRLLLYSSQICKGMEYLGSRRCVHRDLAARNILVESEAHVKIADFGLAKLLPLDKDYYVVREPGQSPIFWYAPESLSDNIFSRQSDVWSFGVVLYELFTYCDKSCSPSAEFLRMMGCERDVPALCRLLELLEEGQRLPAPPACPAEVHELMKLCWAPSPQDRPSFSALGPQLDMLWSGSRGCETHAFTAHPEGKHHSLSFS
T2 sequence (O60674 with tags, fused parts or gaps): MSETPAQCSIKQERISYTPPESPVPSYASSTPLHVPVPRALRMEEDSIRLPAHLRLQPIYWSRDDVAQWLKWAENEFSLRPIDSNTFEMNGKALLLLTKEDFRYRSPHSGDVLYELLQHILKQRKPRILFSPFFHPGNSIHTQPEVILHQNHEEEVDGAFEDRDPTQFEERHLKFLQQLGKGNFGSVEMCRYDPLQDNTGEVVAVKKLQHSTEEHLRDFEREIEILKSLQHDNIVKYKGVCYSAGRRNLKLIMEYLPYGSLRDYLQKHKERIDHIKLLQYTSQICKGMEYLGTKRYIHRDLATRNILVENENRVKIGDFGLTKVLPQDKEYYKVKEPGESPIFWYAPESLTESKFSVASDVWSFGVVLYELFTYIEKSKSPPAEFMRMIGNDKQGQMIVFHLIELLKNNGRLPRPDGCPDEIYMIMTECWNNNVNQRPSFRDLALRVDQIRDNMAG

Structure (SMILES) | inhibition at 20 µM [1] [%] | inhibition at 20 µM [2] [%] | Tubulin inhibition of tubulin polymerisation [3] | inhibition at 20 µM [4] [%] | inhibition at 20 µM [5] [%] | inhibition at 20 µM [6] [%]
CCCC(Nc1cncc(-c2ccc(NC(=O)NCC)c(OC)c2)n1)c1cccc(F)c1 (stereo not drawn) | > 50 | > 50 | + (compounds which inhibited tubulin polymerisation by greater than 50% at 50 μM) | > 50 | > 50 | > 50
CCCC(Nc1cncc(-c2ccc(CO)cc2)n1)c1ccccc1 (stereo not drawn) | > 50 | > 50 | + (compounds which inhibited tubulin polymerisation by greater than 50% at 50 μM) | > 50 | > 50 | > 50
CCCC(Nc1cncc(-c2ccc(NC(=O)NCC)c(OC)c2)n1)c1cccnc1 (stereo not drawn) | > 50 | > 50 | + (compounds which inhibited tubulin polymerisation by greater than 50% at 50 μM) | > 50 | > 50 | > 50
CCCC(Nc1cncc(-c2ccc(OCCCCO)c(OC)c2)n1)c1ccccc1 (stereo not drawn) | > 50 | > 50 | + (compounds which inhibited tubulin polymerisation by greater than 50% at 50 μM) | > 50 | > 50 | > 50
CCCC(Nc1cncc(-c2ccc(CN)cc2)n1)c1ccccc1 (stereo not drawn) | > 50 | > 50 | + (compounds which inhibited tubulin polymerisation by greater than 50% at 50 μM) | > 50 | > 50 | > 50
CCCC(Nc1cncc(-c2ccc(OCCCN3CCCC3)c(OC)c2)n1)c1ccccc1 (stereo not drawn) | > 50 | > 50 | + (compounds which inhibited tubulin polymerisation by greater than 50% at 50 μM) | > 50 | > 50 | > 50
CCCC(Nc1cncc(-c2ccc(OCCCN(CC)CC)c(OC)c2)n1)c1ccccc1 (stereo not drawn) | > 50 | > 50 | + (compounds which inhibited tubulin polymerisation by greater than 50% at 50 μM) | > 50 | > 50 | > 50
CCCC(Nc1cncc(-c2ccc(OCCCN3CCN(C)CC3)c(OC)c2)n1)c1ccccc1 (stereo not drawn) | > 50 | > 50 | + (compounds which inhibited tubulin polymerisation by greater than 50% at 50 μM) | > 50 | > 50 | > 50
CCCC(Nc1cncc(-c2ccc(OCCCn3ccnc3)c(OC)c2)n1)c1ccccc1 (stereo not drawn) | > 50 | > 50 | + (compounds which inhibited tubulin polymerisation by greater than 50% at 50 μM) | > 50 | > 50 | > 50
CCCC(Nc1cncc(-c2ccc(CNC(=O)C3CCCNC3)cc2)n1)c1ccccc1 (stereo not drawn) | > 50 | > 50 | + (compounds which inhibited tubulin polymerisation by greater than 50% at 50 μM) | > 50 | > 50 | > 50
CCCC(Nc1cncc(-c2ccc(OCCCCN3CCCCC3)c(OC)c2)n1)c1ccccc1 (stereo not drawn) | > 50 | > 50 | + (compounds which inhibited tubulin polymerisation by greater than 50% at 50 μM) | > 50 | > 50 | > 50
CCCC(Nc1cncc(-c2ccc(OCCCCN3CCCC3)c(OC)c2)n1)c1ccccc1 (stereo not drawn) | > 50 | > 50 | + (compounds which inhibited tubulin polymerisation by greater than 50% at 50 μM) | > 50 | > 50 | > 50
CCCC(Nc1cncc(-c2ccc(OCCCCN(CC)CC)c(OC)c2)n1)c1ccccc1 (stereo not drawn) | > 50 | > 50 | + (compounds which inhibited tubulin polymerisation by greater than 50% at 50 μM) | > 50 | > 50 | > 50
CCCC(Nc1cncc(-c2ccc(OCCCCN3CCN(C)CC3)c(OC)c2)n1)c1ccccc1 (stereo not drawn) | > 50 | > 50 | + (compounds which inhibited tubulin polymerisation by greater than 50% at 50 μM) | > 50 | > 50 | > 50
CCCC(Nc1cncc(-c2ccc(OCCCCN)c(OC)c2)n1)c1ccccc1 (stereo not drawn) | > 50 | > 50 | + (compounds which inhibited tubulin polymerisation by greater than 50% at 50 μM) | > 50 | > 50 | > 50
CCCC(Nc1cncc(-c2ccc(CNC(=O)C3CCNCC3)cc2)n1)c1ccccc1 (stereo not drawn) | > 50 | > 50 | + (compounds which inhibited tubulin polymerisation by greater than 50% at 50 μM) | > 50 | > 50 | > 50
CCCC(Nc1nnc(C)c(-c2ccc(O)c(OC)c2)n1)c1ccccc1 (stereo not drawn) | > 50 | > 50 | + (compounds which inhibited tubulin polymerisation by greater than 50% at 50 μM) | > 50 | > 50 | > 50
CCCC(Nc1cncc(-c2ccc(CN3CCCC3)cc2)n1)c1ccccc1 (stereo not drawn) | > 50 | > 50 | + (compounds which inhibited tubulin polymerisation by greater than 50% at 50 μM) | > 50 | > 50 | > 50
CCCC(Nc1cncc(-c2ccc(CN)c(OC)c2)n1)c1cccnc1 (stereo not drawn) | > 50 | > 50 | + (compounds which inhibited tubulin polymerisation by greater than 50% at 50 μM) | > 50 | > 50 | > 50
CCNC(=O)Nc1ccc(-c2cncc(N[C@@H](CC)c3cccnc3)n2)cc1OC | > 50 | > 50 | + (compounds which inhibited tubulin polymerisation by greater than 50% at 50 μM) | > 50 | > 50 | > 50
COc1cc(-c2nccc(N[C@@H](C)c3ccccc3)n2)ccc1O | > 50 | > 50 | + (compounds which inhibited tubulin polymerisation by greater than 50% at 50 μM) | > 50 | > 50 | > 50
COc1cc(-c2cncc(N[C@@H](C)c3ccccc3)c2)ccc1O | > 50 | > 50 | + (compounds which inhibited tubulin polymerisation by greater than 50% at 50 μM) | > 50 | > 50 | > 50
CCCC(Nc1cncc(-c2ccc(O)c(OC)c2)c1)c1ccccc1 (stereo not drawn) | > 50 | > 50 | + (compounds which inhibited tubulin polymerisation by greater than 50% at 50 μM) | > 50 | > 50 | > 50
CCCC(Nc1cncc(-c2cc(C)c(O)c(C)c2)c1)c1ccccc1 (stereo not drawn) | > 50 | > 50 | + (compounds which inhibited tubulin polymerisation by greater than 50% at 50 μM) | > 50 | > 50 | > 50
